How the values were obtained:
Assay in all cases: Specificity to transferring acceptor
Type in all cases: biochemical
Design in all cases: key: −: no saccharide transferred product was formed; ±: a saccharide-transferred product formed in an amount of less than one percent to the total sugars; +: a saccharide-transferred product was formed in an amount of over one percent but below 10% to the total sugars; ++: a saccharide-transferred product was formed in an amount of over 10% to the total sugars
[1] = test system: α-isomaltosyl-transferring enzyme from Arthrobacter globiformis A19; conditions: partially purified enzyme, panose as saccharide donor, 10 units/g substrate, 3.2% (w/v), 30° C., pH 6.0, 24 hours
Experimental: (§1) Saccharides were tested as follows to examine whether they can be used as transferring acceptors for the α-isomaltosyl-transferring enzyme of the present invention. A solution of D-glucose, D-xylose, L-xylose, D-galactose, D-fructose, D-mannose, D-arabinose, D-fucose, L-sorbose, L-rhamnose, methyl-α-glucoside (or methyl-α-glucopyranoside), methyl-β-glucoside (or methyl-β-glucopyranoside), N-acetyl-D-glucosamine, D-ribose, L-ribose, D-psicose, sorbitol, xylitol, mannitol, arabitol, ribitol, erythritol, maltose, maltotriose, maltotetraose, maltopentaose, isomaltose, isomaltotriose, α,α-trehalose, α,β-trehalose, kojibiose, nigerose, cellobiose, gentibiose, isopanose, maltitol, maltotriitol, lactose, sucrose, erlose, isomaltosylglucoside, α-cyclodextrin, β-cyclodextrin, γ-cyclodextrin, or L-ascorbic acid was prepared. To each solution was added panose as a saccharide donor to give an equal concentration, admixed with 10 units/g substrate of a purified specimen of either α-isomaltosyl-transferring enzyme from Bacillus globisporus C9 obtained by the method in Experiment 4, Bacillus globisporus C11 obtained by the method in Experiment 7, Bacillus globisporus N75 obtained by the method in Experiment 11, or Arthrobacter ramosus S1 obtained by the method in Experiment 15, or a partially purified specimen of α-isomaltosyl-transferring enzyme from Arthrobacter globiformis A19 obtained by the method in Experiment 18, followed by adjusting the saccharide concentration to 3.2% (w/v). The mixtures thus obtained were enzymatically reacted at 30° C. and Ph 6.0 for 24 hours. The saccharide composition of the resulting reaction mixtures were analyzed on gas chromatography (abbreviated as “GLC” hereinafter) for monosaccharides and disaccharides as testing saccharides, and on HPLC for tri- or higher-saccharides as testing saccharides to confirm whether these saccharides can be used as transferring acceptors for the above enzymes with an index of the positive or negative formation of a saccharide transferred product. In performing GLC, the following apparatuses and conditions were used: GLC apparatus, “GC-16A” commercialized by Shimadzu Corporation, Tokyo, Japan; column, a stainless-steel column, 3 mm in diameter and 2 m in length, packed with 2% “SILICONE OV-17/[…]”, commercialized by GL Sciences Inc., Tokyo, Japan; carrier gas, nitrogen gas at a flow rate of 40 ml/min under temperature conditions of increasing from 160° C. to 320° C. at an increasing temperature rate of 7.5° C./min; and detection, a hydrogen flame ionization detector. In the case of HPLC analysis, the apparatuses and conditions used were: HPLC apparatus, “CCPD” commercialized by Tosoh Corporation, Tokyo, Japan; column, “ODS-AQ-303” commercialized by YMC Co., Ltd., Tokyo, Japan; eluent, water at a flow rate of 0.5 ml/min; and detection, a differential refractometer.

[2] = test system: α-isomaltosyl-transferring enzyme from Arthrobacter ramosus S1; conditions: panose as saccharide donor, 10 units/g substrate, 3.2% (w/v), 30° C., pH 6.0, 24 hours
Experimental: as §1

[3] = test system: α-isomaltosyl-transferring enzyme from Bacillus globisporus C11; conditions: panose as saccharide donor, 10 units/g substrate, 3.2% (w/v), 30° C., pH 6.0, 24 hours
Experimental: as §1

[4] = test system: α-isomaltosyl-transferring enzyme from Bacillus globisporus C9; conditions: panose as saccharide donor, 10 units/g substrate, 3.2% (w/v), 30° C., pH 6.0, 24 hours
Experimental: as §1

[5] = test system: α-isomaltosyl-transferring enzyme from Bacillus globisporus N75; conditions: panose as saccharide donor, 10 units/g substrate, 3.2% (w/v), 30° C., pH 6.0, 24 hours
Experimental: as §1

SMILES	Product of transferring reaction, Enzyme of Stain A19 [1]	Product of transferring reaction, Enzyme of Strain S1 [2]	Product of transferring reaction, Enzyme of Strain C11 [3]	Product of transferring reaction, Enzyme of Strain C9 [4]	Product of transferring reaction, Enzyme of Strain N75 [5]
O=C[C@H](O)[C@@H](O)[C@@H](O)[C@H](O)CO [D-Galactose, D-galactose]	± (a saccharide-transferred product formed in an amount of less than one percent to the total sugars)	+ (a saccharide-transferred product was formed in an amount of over one percent but below 10% to the total sugars)	−	−	−
OC[C@@H](O)[C@@H](O)[C@H](O)[C@H](O)CO [Mannitol, mannitol]	−	−	−	−	−
OC[C@@H](O)[C@@H](O)CO [Erythritol, erythritol]	± (a saccharide-transferred product formed in an amount of less than one percent to the total sugars)	+ (a saccharide-transferred product was formed in an amount of over one percent but below 10% to the total sugars)	+ (a saccharide-transferred product was formed in an amount of over one percent but below 10% to the total sugars)	+ (a saccharide-transferred product was formed in an amount of over one percent but below 10% to the total sugars)	+ (a saccharide-transferred product was formed in an amount of over one percent but below 10% to the total sugars)
O=C[C@@H](O)[C@@H](O)[C@@H](O)CO [L-Ribose, L-ribose]	± (a saccharide-transferred product formed in an amount of less than one percent to the total sugars)	++ (a saccharide-transferred product was formed in an amount of over 10% to the total sugars)	−	−	−
O=C[C@@H](O)[C@@H](O)[C@H](O)[C@H](O)CO [D-Mannose, D-mannose]	−	−	−	−	−
OC[C@@H](O)[C@@H](O)[C@@H](O)CO [Ribitol, ribitol]	−	± (a saccharide-transferred product formed in an amount of less than one percent to the total sugars)	−	−	−
C[C@H](O)[C@H](O)[C@@H](O)[C@@H](O)C=O [L-Rhamnose, L-rhamnose]	± (a saccharide-transferred product formed in an amount of less than one percent to the total sugars)	+ (a saccharide-transferred product was formed in an amount of over one percent but below 10% to the total sugars)	± (a saccharide-transferred product formed in an amount of less than one percent to the total sugars)	± (a saccharide-transferred product formed in an amount of less than one percent to the total sugars)	± (a saccharide-transferred product formed in an amount of less than one percent to the total sugars)
O=C1O[C@H]([C@@H](O)CO)C(O)=C1O [L-Ascorbic acid, L-ascorbic acid]	+ (a saccharide-transferred product was formed in an amount of over one percent but below 10% to the total sugars)	++ (a saccharide-transferred product was formed in an amount of over 10% to the total sugars)	++ (a saccharide-transferred product was formed in an amount of over 10% to the total sugars)	++ (a saccharide-transferred product was formed in an amount of over 10% to the total sugars)	++ (a saccharide-transferred product was formed in an amount of over 10% to the total sugars)
O=C(CO)[C@@H](O)[C@H](O)[C@H](O)CO [D-Fructose, D-fructose]	± (a saccharide-transferred product formed in an amount of less than one percent to the total sugars)	+ (a saccharide-transferred product was formed in an amount of over one percent but below 10% to the total sugars)	−	−	−
C[C@@H](O)[C@H](O)[C@H](O)[C@@H](O)C=O [D-Fucose, D-fucose]	± (a saccharide-transferred product formed in an amount of less than one percent to the total sugars)	+ (a saccharide-transferred product was formed in an amount of over one percent but below 10% to the total sugars)	± (a saccharide-transferred product formed in an amount of less than one percent to the total sugars)	± (a saccharide-transferred product formed in an amount of less than one percent to the total sugars)	± (a saccharide-transferred product formed in an amount of less than one percent to the total sugars)
OC[C@@H](O)[C@@H](O)[C@H](O)[C@@H](O)CO [Sorbitol, sorbitol]	± (a saccharide-transferred product formed in an amount of less than one percent to the total sugars)	± (a saccharide-transferred product formed in an amount of less than one percent to the total sugars)	−	−	−
OC[C@H]1O[C@@](CO)(O[C@H]2O[C@H](CO)[C@@H](O[C@H]3O[C@H](CO)[C@@H](O)[C@H](O)[C@H]3O)[C@H](O)[C@H]2O)[C@@H](O)[C@@H]1O [Erlose, erlose]	+ (a saccharide-transferred product was formed in an amount of over one percent but below 10% to the total sugars)	+ (a saccharide-transferred product was formed in an amount of over one percent but below 10% to the total sugars)	+ (a saccharide-transferred product was formed in an amount of over one percent but below 10% to the total sugars)	+ (a saccharide-transferred product was formed in an amount of over one percent but below 10% to the total sugars)	+ (a saccharide-transferred product was formed in an amount of over one percent but below 10% to the total sugars)

From US7192746B2, “α-Isomaltosyltransferase, process for producing the same and use thereof” (Kabushiki Kaisha Hayashibara Seibutsu Kagaku Kenkyujo, priority 2000, dated 2007)
